In brackets after ≈: the same amount, converted by molar mass.
What was measured:
Type in all cases: functional
[1] = test system: Mycobacterium tuberculosis; assay: Antimycobacterial activity against multidrug-resistant Mycobacterium tuberculosis Praha 131 after 21 days by micromethod; settings: Praha 131, 504 h
[2] = test system: Mycobacterium tuberculosis; assay: Antimycobacterial activity against multidrug-resistant Mycobacterium tuberculosis 7357/1998 after 14 days by micromethod
[3] = test system: Mycobacterium tuberculosis; assay: Antimycobacterial activity against multidrug-resistant Mycobacterium tuberculosis 234/2005 after 14 days by micromethod
[4] = test system: Mycobacterium tuberculosis; assay: Antimycobacterial activity against multidrug-resistant Mycobacterium tuberculosis 8666/2010 after 14 days by micromethod
[5] = test system: Mycobacterium tuberculosis; assay: Antimycobacterial activity against multidrug-resistant Mycobacterium tuberculosis Praha 131 after 14 days by micromethod
[6] = test system: Mycobacterium tuberculosis; assay: Antimycobacterial activity against multidrug-resistant Mycobacterium tuberculosis Praha 1 after 14 days by micromethod
[7] = test system: Mycobacterium tuberculosis; assay: Antimycobacterial activity against multidrug-resistant Mycobacterium tuberculosis Praha 4 after 14 days by micromethod
[8] = test system: Mycobacterium tuberculosis; assay: Antimycobacterial activity against multidrug-resistant Mycobacterium tuberculosis 8666/2010 after 21 days by micromethod; settings: 8666/2010, 504 h
[9] = test system: Mycobacterium tuberculosis; assay: Antimycobacterial activity against multidrug-resistant Mycobacterium tuberculosis 9449/2007 after 21 days by micromethod; settings: 9449/2007, 504 h
[10] = test system: Mycobacterium tuberculosis; assay: Antimycobacterial activity against multidrug-resistant Mycobacterium tuberculosis Praha 4 after 21 days by micromethod; settings: Praha 4, 504 h
[11] = test system: Mycobacterium tuberculosis; assay: Antimycobacterial activity against multidrug-resistant Mycobacterium tuberculosis 234/2005 after 21 days by micromethod; settings: 234/2005, 504 h
[12] = test system: Mycobacterium tuberculosis; assay: Antimycobacterial activity against multidrug-resistant Mycobacterium tuberculosis Praha 1 after 21 days by micromethod; settings: Praha 1, 504 h
[13] = test system: Mycobacterium tuberculosis; assay: Antimycobacterial activity against multidrug-resistant Mycobacterium tuberculosis 9449/2007 after 14 days by micromethod
[14] = test system: Mycobacterium tuberculosis; assay: Antimycobacterial activity against multidrug-resistant Mycobacterium tuberculosis 7357/1998 after 21 days by micromethod; settings: 7357/1998, 504 h

Row | Compound | MIC [1] [µM] | MIC ([2]; 7357/1998, 336 h) [µM] | MIC ([3]; 234/2005, 336 h) [µM] | MIC ([4]; 8666/2010, 336 h) [µM] | MIC ([5]; Praha 131, 336 h) [µM] | MIC ([6]; Praha 1, 336 h) [µM] | MIC ([7]; Praha 4, 336 h) [µM] | MIC [8] [µM] | MIC [9] [µM] | MIC [10] [µM] | MIC [11] [µM] | MIC [12] [µM] | MIC ([13]; 9449/2007, 336 h) [µM] | MIC [14] [µM] | also measured
1 | O=[N+]([O-])c1cc(-c2nnc(SCc3ccc(Br)cc3)o2)cc([N+](=O)[O-])c1 | 0.06 (≈ 0.0262 µg/mL) | 0.03 (≈ 0.0131 µg/mL) | 0.03 (≈ 0.0131 µg/mL) | 0.03 (≈ 0.0131 µg/mL) | 0.03 (≈ 0.0131 µg/mL) | 0.03 (≈ 0.0131 µg/mL) | 0.03 (≈ 0.0131 µg/mL) | 0.06 (≈ 0.0262 µg/mL) | 0.06 (≈ 0.0262 µg/mL) | 0.06 (≈ 0.0262 µg/mL) | 0.06 (≈ 0.0262 µg/mL) | 0.06 (≈ 0.0262 µg/mL) | 0.03 (≈ 0.0131 µg/mL) | 0.06 (≈ 0.0262 µg/mL) | 
2 | COc1ccc(CSc2nnc(-c3cc([N+](=O)[O-])cc([N+](=O)[O-])c3)o2)cc1 | 0.06 (≈ 0.0233 µg/mL) | 0.03 (≈ 0.0117 µg/mL) | 0.03 (≈ 0.0117 µg/mL) | 0.03 (≈ 0.0117 µg/mL) | 0.03 (≈ 0.0117 µg/mL) | 0.03 (≈ 0.0117 µg/mL) | 0.03 (≈ 0.0117 µg/mL) | 0.06 (≈ 0.0233 µg/mL) | 0.06 (≈ 0.0233 µg/mL) | 0.06 (≈ 0.0233 µg/mL) | 0.06 (≈ 0.0233 µg/mL) | 0.06 (≈ 0.0233 µg/mL) | 0.03 (≈ 0.0117 µg/mL) | 0.06 (≈ 0.0233 µg/mL) | 
3 | O=[N+]([O-])c1cc(-c2nnc(SCc3cccc(Cl)c3)o2)cc([N+](=O)[O-])c1 | 0.06 (≈ 0.0236 µg/mL) | 0.03 (≈ 0.0118 µg/mL) | 0.03 (≈ 0.0118 µg/mL) | 0.03 (≈ 0.0118 µg/mL) | 0.03 (≈ 0.0118 µg/mL) | 0.03 (≈ 0.0118 µg/mL) | 0.03 (≈ 0.0118 µg/mL) | 0.06 (≈ 0.0236 µg/mL) | 0.06 (≈ 0.0236 µg/mL) | 0.06 (≈ 0.0236 µg/mL) | 0.06 (≈ 0.0236 µg/mL) | 0.06 (≈ 0.0236 µg/mL) | 0.03 (≈ 0.0118 µg/mL) | 0.06 (≈ 0.0236 µg/mL) | 
4 | NCC[C@H](O)C(=O)N[C@@H]1C[C@H](N)[C@@H](O[C@H]2O[C@H](CN)[C@@H](O)[C@H](O)[C@H]2O)[C@H](O)[C@H]1O[C@H]1O[C@H](CO)[C@@H](O)[C@H](N)[C@H]1O [AMIKACIN] |  | 1 (≈ 0.586 µg/mL) | 0.5 (≈ 0.293 µg/mL) | 2 (≈ 1.17 µg/mL) | > 32 | 0.5 (≈ 0.293 µg/mL) | 1 (≈ 0.586 µg/mL) |  |  |  |  |  | 0.5 (≈ 0.293 µg/mL) |  | 
5 | O=[N+]([O-])c1cc(-n2nnnc2SCc2ccc(Cl)c(Cl)c2)cc([N+](=O)[O-])c1 | 0.5 (≈ 0.214 µg/mL) | 0.25 (≈ 0.107 µg/mL) | 0.25 (≈ 0.107 µg/mL) | 0.25 (≈ 0.107 µg/mL) | 0.25 (≈ 0.107 µg/mL) | 0.25 (≈ 0.107 µg/mL) | 0.25 (≈ 0.107 µg/mL) | 0.25 (≈ 0.107 µg/mL) | 0.25 (≈ 0.107 µg/mL) | 0.25 (≈ 0.107 µg/mL) | 0.25 (≈ 0.107 µg/mL) | 0.5 (≈ 0.214 µg/mL) | 0.25 (≈ 0.107 µg/mL) | 0.5 (≈ 0.214 µg/mL) | 
6 | GENTAMICIN |  |  |  |  |  |  |  |  |  |  |  |  |  |  | MIC [2]: 1 µM; MIC [3]: 0.25 µM; MIC [4]: 2 µM; MIC [5]: > 8 µM; MIC [6]: 1 µM; MIC [7]: 0.5 µM; MIC [13]: 1 µM
7 | O=[N+]([O-])c1cc(-c2nnc(SCc3ccccc3Cl)o2)cc([N+](=O)[O-])c1 | 0.125 (≈ 0.0491 µg/mL) | 0.06 (≈ 0.0236 µg/mL) | 0.06 (≈ 0.0236 µg/mL) | 0.06 (≈ 0.0236 µg/mL) | 0.06 (≈ 0.0236 µg/mL) | 0.06 (≈ 0.0236 µg/mL) | 0.03 (≈ 0.0118 µg/mL) | 0.125 (≈ 0.0491 µg/mL) | 0.125 (≈ 0.0491 µg/mL) | 0.06 (≈ 0.0236 µg/mL) | 0.125 (≈ 0.0491 µg/mL) | 0.125 (≈ 0.0491 µg/mL) | 0.06 (≈ 0.0236 µg/mL) | 0.125 (≈ 0.0491 µg/mL) | 
8 | CC[C@@H](CO)NCCN[C@@H](CC)CO [ETHAMBUTOL] |  | 16 (≈ 3.27 µg/mL) | 16 (≈ 3.27 µg/mL) | 16 (≈ 3.27 µg/mL) | 32 (≈ 6.54 µg/mL) | 32 (≈ 6.54 µg/mL) | 16 (≈ 3.27 µg/mL) |  |  |  |  |  | 8 (≈ 1.63 µg/mL) |  | 
9 | CC1COc2c(N3CCN(C)CC3)c(F)cc3c(=O)c(C(=O)O)cn1c23 (stereo not drawn) [OFLOXACIN] |  | 8 (≈ 2.89 µg/mL) | 0.5 (≈ 0.181 µg/mL) | 8 (≈ 2.89 µg/mL) | 16 (≈ 5.78 µg/mL) | 1 (≈ 0.361 µg/mL) | > 16 |  |  |  |  |  | 2 (≈ 0.723 µg/mL) |  | 
